Data: article PMC4364393 (Journal of medicinal chemistry, 2015)
Converted amounts (≈) assume the structure as drawn. Like-named read-outs stand apart in the source and are kept apart here.

Assays:
[1] = test system: E. faecalis (Van B) ATCC 51299; assay: MIC, E. faecalis; format: cell-based, Enterococcus faecalis
[2] = test system: Van A phenotype VRE strain; details: cited from earlier work
[3] = test system: E. faecalis (Van S) ATCC 29212; assay: MIC, E. faecalis; format: cell-based; details: Enterococcus faecalis, ATCC29212, read-out: MIC, E. faecalis (Van S) ATCC 29212
[4] = test system: E. faecalis (Van A) MMX 486; assay: MIC, E. faecalis; format: cell-based; details: Enterococcus faecalis, read-out: MIC, E. faecalis (Van A) MMX 486

G4-decanoyl vancomycin derivative [Compound 9b]
times more active against a VRE strain (Van B phenotype) ([1]; fold improvement of MIC, compared with vancomycin): 64 times

CN[C@H](CC(C)C)C(=O)N[C@H]1C(=O)N[C@@H](CC(N)=O)C(=O)N[C@H]2C(=O)N[C@H]3C(=O)N[C@H](C(=O)N[C@H](C(=O)O)c4cc(O)cc(O)c4-c4cc3ccc4O)[C@H](O)c3ccc(c(Cl)c3)Oc3cc2cc(c3O[C@@H]2O[C@H](CO)[C@@H](O)[C@H](O)[C@H]2O[C@H]2C[C@](C)(N)[C@H](O)[C@H](C)O2)Oc2ccc(cc2Cl)[C@H]1O [Vancomycin, vancomycin]
MIC against Van A phenotype VRE strain ([2]; based on a literature report): 512 µg/mL (≈ 353 µM)

CC(=O)NC[C@H]1CN(c2ccc(N3CCOCC3)c(F)c2)C(=O)O1 [Linezolid, linezolid]
MIC [3]: 2 µg/mL (≈ 5.93 µM)
MIC ([1]; Enterococcus faecalis, ATCC51299, read-out: MIC, E. faecalis (Van B) ATCC 51299): 2 µg/mL (≈ 5.93 µM)
MIC [4]: 2 µg/mL (≈ 5.93 µM)

teicoplanin A2-2
MIC against Van A phenotype VRE strain [2]: 128 µg/mL
